How the values were obtained:
[1] = tested on: fully-duplexed (CAG)50●(CTG)50; experiment: band-shift NA-DNA binding, fully-duplexed repeat; set-up: species or system human; conditions: NA 0.15-50 μM, 4% polyacrylamide gel
Source text: FIG. 2 are the results of experiments showing that NA binds to long CAG slip-outs. […] The (CAG)n DNA sequence (left) can fold into an hairpin structure involving mismatched A-A pair flanking C-G base pairs (middle). NA molecules can intercalate into the DNA helix, with the 2-amino-1,8-naphthyridine moiety (in red) hydrogen bonding to guanine and 8-azaquinolone moiety (in blue) hydrogen bonding to adenine. […] Long slip-outs extruded as a single slip-out from a fully base-paired backbone of (CTG)n●(CAG)n, as described (Pearson et al., 2002, Nuc. Acids Res., 30:4534-47). DNAs were mixed with increasing concentrations of NA (0.15 μM, 0.75 μM, 7.5 μM and 50 μM) and resolved on 4% polyacrylamide gels. All lanes are from the same gel, and they were separated for clarity. NA-DNA complexes are shown by brackets, free DNA is indicated by arrowheads. […] The relative migration was measured for the linear and the three slip-outs substrates as the ratio of the migration distance of each NA-DNA complex to the migration distance of the free DNA. The migration distance was measured from the well to a consistent center point of each band. […]

[2] = tested on: Mapkap1 and Fgd4 loci in striatum from R6/2 mouse; experiment: repeat-tract lengths of non-expanded loci in R6/2 striatum; type: in vivo; conditions: four injections, both sides of striatum

Substance: naphthyridine-azaquinolone
- NA binding (band-shift) [1]: did not bind
- length variation at Mapkap1 and Fgd4 loci [2]: Length variation was not observed

Source: patent publication US11672786B2, “Methods of treating diseases associated with repeat instability” (The Hospital for Sick Children, priority 2016, dated 2023)
